This assay relates to Epididymal fat cells from Wistar rats. The assay is described as follows: Glucose uptake in epididymal fat cells. The class given is cell-based. The settings on record: D-[3-3H]Glucose incorporation, rat epididymal fat cells, 2 hour incubation.

pEC50: −log10 of the molar value.

Procedure: In addition, glucose uptake in an other source of adipocytes was used to evaluate the in vitro activity. […] The tissue (0.03 g/ml) is degraded by collagenase in modified HEPES solution pH 7.4 at 37° C. Test compound and/or vehicle is incubated with 500 μl aliquots in modified HEPES buffer pH 7.4 and D-[3-3H]Glucose (2.5 μCi/ml) is then added for 2 hour incubation. Test compound-induced the increase of glucose incorporation by more than 50 percent or more (≧50%) relative to the control 2 nM insulin response, indicates possible insulin receptor agonist activity. […] Compounds are screened at 10, 1, 0.1, 0.01 and 0.001 μM.

Usually pEC50 stands for the negative decadic logarithm of the EC50, by convention in mol/L. A lower pEC50 goes with a large EC50. In the case of “(Phe B1)-MPA-(AEES)2-Insulin [Example VI]”, the negative logarithm of the EC50 (pEC50) is 7.81.
